Patent US11541019B2, “Compositions for use in the treatment of diabetes” (University of Ulster, priority 2015, dated 2023)
Like-named read-outs stand apart in the source and are kept apart here.

How the values were obtained:
[1] = system: BRIN-BD11 cells; assay: Intracellular Ca2+ in BRIN-BD11 cells (Flex calcium assay kit); assay type: cell-based; conditions: 10^−4 mol/L, 16.7 mM glucose
Procedure: (§1) For intracellular Ca2+ measurement, monolayers of BRIN-BD11 cells were seeded overnight at a density of 80,000 cells per well in a 96-well black walled clear bottom plate. Cells were washed with 100 μl of Krebs buffer and incubated for 1 hour with Flex calcium assay kit reagent at 37° C. GPR84 at 10^−4 mol/L were added at 5.6 mmol/L and 16.7 mmol/L glucose. Fluorometric data were obtained using the FLEX Station scanner and test solutions were transferred using fluid transfer workstation at a wavelength of 525 nm (Molecular Devices). For cAMP determination, BRIN-BD11 cells were seeded in a 96-well plate at a density of 30,000 cells per well. Cells were washed with 300 μl Krebs buffer for 40 min and 150 μl of compositions of the present invention at 10^−10-10^−4 mol/L were tested at […] glucose. After 20 minutes, test solutions were removed and 0.1M HCL (150 μL) was added to lyse the cells. Total cAMP production in the cell supernatants were measured using cAMP enzyme immunoassay kit according to the manufacturer's protocol (Sigma, Poole, UK).

[2] = system: BRIN-BD11 cells; assay: cAMP production in BRIN-BD11 cells (enzyme immunoassay); assay type: cell-based; conditions: 11.1 mM glucose, 20 min
Procedure: as §1

[3] = system: NIH Swiss mice; assay: Acute effects on plasma glucose and insulin after oral glucose load; assay type: in vivo; conditions: for circulating (plasma) glucose after glucose load / plasma insulin (insulin release) after glucose load: high fat fed mice, oral 50 μmol/kg with glucose 18 mmol/kg
Procedure: Adult male (20-22 week) NIH Swiss mice (Harlan UK Ltd) were individually housed in an air-conditioned room at 22±2° C. with 12 hour light: 12 hour darkness cycles. […] Non-fasted NIH Swiss mice (n=6) received an oral injection of glucose alone (18 mmol/kg body weight) or in combination with compositions of the present invention (50 μmol/kg body weight). Blood samples were obtained from the cut tip from tail vein of conscious mice and centrifuged at 13,000 rpm for 3 minutes at 4° C. Plasma glucose was measured by an automated glucose oxidase procedure using a Beckman glucose analyser and insulin determined by radioimmunoassay. All animal experiments were carried out in accordance with the UK Animal (Scientific Procedures) Act 1986.

[4] = system: BRIN-BD11 cells; assay: LDH release from BRIN-BD11 cells as indicator of cytotoxicity; assay type: cell-based
Procedure: (§2) Insulin-secreting BRIN-BD11 cells were cultured with RPMI-1640 media (11.1 mM glucose) containing antibiotics (100 U/ml penicillin and 0.1 mg/ml streptomycin) and 10% foetal calf serum at 37° C. in an atmosphere of 95% air and 5% carbon dioxide. For acute insulin secretion studies, cells were detached using trypsin/EDTA and incubated overnight in 24 well plates with 150,000 cells per well. Cells were then pre-incubated for 40 minutes at 1.1 mmol/l glucose in Krebs buffer (comprising 4.7 mmol/l KCL, 115 mmol/l NaCl, 1.28 mmol/CaCl2, 10 mmol/l NaHCO3, 5 g/l BSA, 1.2 mmol/l KH2PO4, 1.2 mmol/l MgSO47H2O pH 7.4). Test incubations were then performed at 37° C. for 20 minutes. DIM, indole-3-carbinol, embelin, [6]-gingerol, and [6]-shogaol at 10^−12-10^−4 mol/L were tested at both 5.6 mmol/L and 16.7 mmol/L glucose, as indicated in the accompanying drawings. Supernatants were removed, evaluated for lactate dehydrogenase (LDH) release as an indicator of cytotoxicity (as per manufacturer's protocol) or frozen at −20° C. until determination of insulin by radioimmunoassay.

[5] = system: high fat fed diabetic NIH Swiss mice; assay: Long-term daily oral administration in high fat fed diabetic mice; assay type: in vivo; conditions: for pancreatic insulin content: HFF model; for plasma insulin following oral glucose / plasma glucose following a glucose load: after long-term daily administration; for plasma glucose following a glucose load: glucose 18 mmol/kg; for increase in circulating GLP-1: at 30 min after oral glucose, long term study; for plasma GLP-1: at the end of the study; for insulin sensitivity: insulin 25 U/kg; for body weight: daily oral for 21 days; for non-fasting plasma insulin: after 21 days; for decrease in plasma glucose, area under the curve: over 21 days; for GLP-1 secretion: over the long term study, after oral glucose
Procedure: […] In order to confirm diabetes, an oral glucose tolerance test (OGTT) was performed. Food intake, fluid intake, body weight, non-fasted plasma glucose and insulin concentrations were monitored every 2- to 4-days as indicated in the accompanying drawings. At the end of the study, glucose tolerance (18 mmol/kg body weight) and insulin sensitivity (25 U/kg body weight) were assessed. Mice were anesthetised by isoflurane and killed by cervical dislocation. Dual energy X-ray absorption (DEXA) scanning was performed after prior calibration and quality control with the aluminium/lucite phantom (0.069 g/cm2, 12.0% fat) using a PIXImus system (software version 1.4x).

[6] = system: BRIN-BD11 cells; assay: Acute insulin secretion from clonal BRIN-BD11 cells (radioimmunoassay); assay type: cell-based; conditions: for concentrations that enhanced insulin release: tested 10^−12-10^−4 mol/L; for EC50: Rattus norvegicus, BRIN-BD11, 20 min, 20 min incubation, read-out: EC50 of enhanced insulin release
Procedure: as §2

[7] = high fat fed mice, daily administration
[8] = 5.6 mM or 16.7 mM glucose, not separated at the place

## CCCCC/C=C/C(=O)CCc1ccc(O)c(OC)c1 [[6]-shogaol, (E)-1-(4-hydroxy-3-methoxyphenyl)dec-4-en-3-one]
[1]
  intracellular Ca2+ concentrations: increased intracellular Ca2+ concentrations
[2]
  cAMP production / involvement of cAMP pathway: act through the cAMP pathway

## CCCCCCCCCCCC1=C(O)C(=O)C=C(O)C1=O [Embelin, 2,5-dihydroxy-3-undecylcyclohexa-2,5-diene-1,4-dione]
[3]
  circulating (plasma) glucose after glucose load: decreased circulating glucose
  plasma insulin (insulin release) after glucose load: increase in insulin release
[4]; 5.6 mM glucose
  cytotoxicity (LDH release): No cytotoxicity
[4]; 16.7 mM glucose
  cytotoxicity (LDH release): No cytotoxicity
[1]
  intracellular Ca2+ concentrations: increased intracellular Ca2+ concentrations
[2]
  cAMP production / involvement of cAMP pathway: involves the cAMP-dependent pathway
[5]; daily administration
  pancreatic insulin content: reduced pancreatic insulin content
[5]; high fat fed mice
  plasma insulin following oral glucose: decreased plasma insulin
  plasma glucose following a glucose load: significantly decreased
  increase in circulating GLP-1: 45%
  plasma GLP-1: raised
  body weight: no effect on body weight
  GLP-1 secretion: increased GLP-1 secretion
[5]; [7]
  low-density lipoprotein (LDL) cholesterol: reduced
  total body fat (DEXA): no change in total body fat
  total cholesterol: reduced
  insulin sensitivity: decreased
[5]; high fat fed mice, daily oral, after 9 days of treatment
  non-fasting plasma glucose: significant decrease in plasma glucose
[5]; high fat fed mice, daily oral
  non-fasting plasma insulin: augmented
  decrease in plasma glucose, area under the curve: 17%
[6]; 5.6 mM glucose
  concentrations that enhanced insulin release: 10^−9-10^−4 mol/L
[6]; 16.7 mM glucose
  concentrations that enhanced insulin release: 10^−10-10^−4 mol/L
[6]; 5.6 mM basal glucose
  EC50: 730 nM
[6]; 16.7 mM stimulatory glucose
  EC50: 210 nM

## c1ccc2c(Cc3c[nH]c4ccccc34)c[nH]c2c1 [Diindolylmethane, 3,3′-methanediylbis(1H-indole)]
[3]
  circulating (plasma) glucose after glucose load: decreased circulating glucose
  plasma insulin (insulin release) after glucose load: increase in insulin release
[4]; 5.6 mM glucose
  cytotoxicity (LDH release): No cytotoxicity
[4]; 16.7 mM glucose
  cytotoxicity (LDH release): No cytotoxicity
[1]
  intracellular Ca2+ concentrations: increased intracellular Ca2+ concentrations
[2]
  cAMP production / involvement of cAMP pathway: involves the cAMP-dependent pathway
[5]; daily administration
  pancreatic insulin content: reduced pancreatic insulin content
[5]; high fat fed mice
  plasma insulin following oral glucose: decreased plasma insulin
  plasma glucose following a glucose load: attenuated
  increase in circulating GLP-1: 61%
  plasma GLP-1: raised
  body weight: decreased body weight after 15 days
  GLP-1 secretion: increased GLP-1 secretion
[5]; [7]
  total body fat (DEXA): decreased body fat
  insulin sensitivity: decreased
[5]; high fat fed mice, daily oral
  energy intake: decreased energy intake
  fluid intake: no effect on fluid intake
  non-fasting plasma insulin: augmented
  decrease in plasma glucose, area under the curve: 18%
[5]; high fat fed mice, daily oral, at 21 days
  non-fasting plasma glucose: decrease in plasma glucose
[6]; 5.6 mM glucose
  concentrations that enhanced insulin release: 10^−8-10^−4 mol/L
[6]; 16.7 mM glucose
  concentrations that enhanced insulin release: 10^−9-10^−4 mol/L
[6]; 5.6 mM basal glucose
  EC50: 130 nM
[6]; 16.7 mM stimulatory glucose
  EC50: 1000 nM

## OCc1c[nH]c2ccccc12 [Indole-3-carbinol, 1H-Indol-3-ylmethanol]
[3]
  circulating (plasma) glucose after glucose load: significantly decreased
[4]; [8]
  cytotoxicity (LDH release): No cytotoxicity
[6]; 5.6 mM glucose
  concentrations that enhanced insulin release: 10^−7-10^−4 mol/L
[6]; 16.7 mM glucose
  concentrations that enhanced insulin release: 10^−6-10^−4 mol/L
[6]; 5.6 mM basal glucose
  EC50: 1500 nM
[6]; 16.7 mM stimulatory glucose
  EC50: 400 nM

## CCCCC[C@H](O)CC(=O)CCc1ccc(O)c(OC)c1 [[6]-gingerol, (5S)-5-hydroxy-1-(4-hydroxy-3-methoxyphenyl)decan-3-one]
[3]; NIH Swiss mice, diet not separated (normal chow and high fat), oral with glucose 18 mmol/kg
  plasma glucose after glucose load: significant decrease
[4]; [8]
  cytotoxicity (LDH release): No cytotoxicity
[6]; 5.6 mM glucose
  concentrations that enhanced insulin release: 10^−8-10^−4 mol/L
[6]; 16.7 mM glucose
  concentrations that enhanced insulin release: 10^−8-10^−4 mol/L
[6]; 5.6 mM basal glucose
  EC50: 1900 nM
[6]; 16.7 mM stimulatory glucose
  EC50: 2800 nM
